Laboratory results as given in patent US10253086B2, “CD20 therapies, CD22 therapies, and combination therapies with a CD19 chimeric antigen receptor (CAR)-expressing cell” (Novartis AG, priority 2015, dated 2019).

Columns and labels:
NALM6-luc tumors = assay: RAD001 alone on growth of NALM6-luc tumors; type: in vivo, NSG mice; conditions: daily oral dosing of RAD001 alone
Procedure: NALM6-luc cells: The NALM6 human acute lymphoblastic leukemia (ALL) cell line was developed from the peripheral blood of a patient with relapsed ALL. The cells were then tagged with firefly luciferase. These suspension cells grow in RPMI supplemented with 10% heat inactivated fetal bovine serum.
Mice: 6 week old NSG (NOD.Cg-PrkdcscidIl2rgtm1Wjl/SzJ) mice were received from the Jackson Laboratory (stock number 005557).
Tumor implantation: NALM6-luc cells were grown and expanded in vitro in RPMI supplemented with 10% heat inactivated fetal bovine serum. The cells were then transferred to a 15 ml conical tube and washed twice with cold sterile PBS. NALM6-luc cells were then counted and resuspended at a concentration of 10×10^6 cells per milliliter of PBS. The cells were placed on ice and immediately (within one hour) implanted in the mice. NALM6-luc cells were injected intravenously via the tail vein in a 100 μl volume, for a total of 1×10^6 cells per mouse.
(§1) RAD001 dosing: A concentrated micro-emulsion of 50 mg equal to 1 mg RAD001 was formulated and then resuspended in D5W (dextrose 5% in water) at the time of dosing. Mice were orally dosed daily (via oral gavage) with 200 μl of the desired doses of RAD001.
(§2) The expansion and pharmacokinetics of RAD001 was tested in NSG mice with NALM6-luc tumors.

CAR T cells [1] = assay: In vivo proliferation of humanized CD19 CART cells with and without RAD001 dosing; conditions: RAD001 0.003 mg/kg daily with huCTL019; versus normal level of huCAR19 proliferation
Procedure: FIGS. 62A and 62B show in vivo proliferation of humanized CD19 CART cells with and without RAD001 dosing. […] Circles denote PBS; squares denote huCTL019; triangles denote huCTL019 with 3 mg/kg RAD001; inverted triangles denote huCTL019 with 0.3 mg/kg RAD001; diamonds denote huCTL019 with 0.03 mg/kg RAD001; and circles denote huCTL019 with 0.003 mg/kg RAD001.

NALM6 (Nalm-6) = assay: 4 day co-culture proliferation of huCART19 with RAD001; type: cell-based, human
Procedure: To evaluate the functionality of CARTs, the T cells are thawed and counted, and viability is assessed by Cellometer. The number of CAR-positive cells in each culture is normalized using non-transduced T cells (UTD). The impact of RAD001 on CARTs was tested in titrations with RAD001, starting at 50 nM. The target cell line used in all co-culture experiments is NALM6 (Nalm-6), a human pre-B cell acute lymphoblastic leukemia (ALL) cell line expressing CD19 and transduced to express luciferase.
For measuring the proliferation of CARTs, T cells are cultured with target cells at a ratio of 1:1. The assay is run for 4 days, when cells are stained for CD3, CD4, CD8 and CAR expression. The number of T cells is assessed by flow cytometry using counting beads as reference.
The proliferative capacity of CART cells was tested in a 4 day co-culture assay.

CAR T cells [2] = assay: huCAR19 CAR T cell expansion in vivo with RAD001; design: species or system NSG mice; conditions: lowest doses of RAD001, daily oral
Procedure: CAR T cell dosing: Mice were administered 5×10^6 CAR T cells 7 days after tumor implantation. Cells were partially thawed in a 37 degree Celsius water bath and then completely thawed by the addition of 1 ml of cold sterile PBS to the tube containing the cells. The thawed cells were transferred to a 15 ml falcon tube and adjusted to a final volume of 10 mls with PBS. The cells were washed twice at 1000 rpm for 10 minutes each time and then counted on a hemocytometer. T cells were then resuspended at a concentration of 50×10^6 CAR T cells per ml of cold PBS and kept on ice until the mice were dosed. The mice were injected intravenously via the tail vein with 100 μl of the CAR T cells for a dose of 5×10^6 CAR T cells per mouse. Eight mice per group were treated either with 100 μl of PBS alone (PBS), or humanized CD19 CAR T cells.
as §1
Based on these doses, huCAR19 CAR T cells were dosed with and without RAD001 to determine the proliferative ability of these cells. The highest dose used was 3 mg/kg based on the levels of RAD001 in the blood 24 hours after dosing. […] Mice were monitored via FACS for T cell expansion. […]

[3] = test system: CAR-expressing, transduced T cells; assay: CART co-culture with NALM6 cells in the presence of RAD001; type: cell-based; conditions: low doses of RAD001 (nM); 4 days of co-culture with NALM6
Procedure: CARTs were co-cultured with NALM6 (Nalm-6) cells in the presence of different concentrations of RAD001 (nM). The number of CAR-positive CD3-positive T cells (black) and total T cells (white) was assessed after 4 days of co-culture.

[4] = RAD001 PK analysis in tumor bearing mice; type: in vivo, NSG mice
Procedure: as §1
PK analysis: Mice were dosed daily with RAD001 starting 7 days post tumor implantation. Dosing groups were as follows: 0.3 mg/kg, 1 mg/kg, 3 mg/kg, and 10 mg/kg. Mice were bled on days 0 and 14 following the first and last dose of RAD001, at the following time points for PK analysis: 15 minutes, 30 minutes, 1 hour, 2 hours, 4 hours, 8 hours, 12 hours, and 24 hours.
as §2

r/r B-ALL = conditions: cited from earlier work

Compound	growth of NALM6-luc tumors (NALM6-luc tumors)	CAR T cell proliferation in vivo (CAR T cells [1])	proliferation of huCART19 cells (NALM6 (Nalm-6); 0.0032 and 0.016 nM RAD001)	RAD001 concentration at which huCART19 cells expanded (NALM6 (Nalm-6); lesser extent at higher concentrations)	proliferation of the CAR T cells in vivo (CAR T cells [2])	proliferation of CAR-expressing, transduced T cells [3]	concentration of RAD001 in blood ([4]; 24 hours after the final dose)	concentration at 24 h ([4]; NSG, mouse, whole blood, oral, 24 hours after dosing, 0.3 mg/kg, day 0 and day 14, read-out: RAD001 concentrations in the blood)	stability in the blood of tumor bearing mice ([4]; mouse, in vivo)	share of relapses that are CD19-negative (r/r B-ALL)
CO[C@H]1C[C@@H]2CC[C@@H](C)[C@@](O)(O2)C(=O)C(=O)N2CCCC[C@H]2C(=O)O[C@H]([C@H](C)C[C@@H]2CC[C@@H](OCCO)[C@H](OC)C2)CC(=O)[C@H](C)/C=C(\C)[C@@H](O)[C@@H](OC)C(=O)[C@H](C)C[C@H](C)/C=C/C=C/C=C/1C [RAD001, everolimus]	did not have an impact on the growth of NALM6-luc tumors	enhancement in CAR T cell proliferation	higher than observed without the addition of RAD001	less than 0.016 nM	enhanced proliferation of the CAR T cells	enhanced	above 10 nM	> 10 nM	fairly stable in the blood	
blinatumomab: bi-specific anti-CD19/CD3 antibody combining an anti-CD19 scFv with an anti-CD3 scFv										about 30%
